Data as given in PMC6723908, “OCTN2-Mediated Acetyl-L-Carnitine Transport in Human Pulmonary Epithelial Cells In Vitro” (Pharmaceutics, 2019).

Target: T1, OCTN2 (Homo sapiens, UniProt O76082)
T1 construct: gene SLC22A5
T1 sequence (O76082 1-557): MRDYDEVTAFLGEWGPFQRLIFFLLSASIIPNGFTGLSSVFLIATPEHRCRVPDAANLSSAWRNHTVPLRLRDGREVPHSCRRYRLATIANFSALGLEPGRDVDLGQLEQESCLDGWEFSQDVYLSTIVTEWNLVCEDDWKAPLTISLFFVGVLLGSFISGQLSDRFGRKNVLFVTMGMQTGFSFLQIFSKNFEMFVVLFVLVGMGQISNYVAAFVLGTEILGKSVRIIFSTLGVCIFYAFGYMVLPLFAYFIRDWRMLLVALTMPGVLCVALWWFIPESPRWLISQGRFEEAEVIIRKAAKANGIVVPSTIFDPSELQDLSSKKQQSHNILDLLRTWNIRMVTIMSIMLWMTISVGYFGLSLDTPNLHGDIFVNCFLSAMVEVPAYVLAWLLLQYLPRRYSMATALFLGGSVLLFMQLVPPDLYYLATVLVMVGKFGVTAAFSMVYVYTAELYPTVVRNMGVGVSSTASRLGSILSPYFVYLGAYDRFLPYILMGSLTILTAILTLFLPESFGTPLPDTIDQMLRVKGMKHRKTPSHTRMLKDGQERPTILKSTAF
Assay: inhibition of [3H]-acetyl-L-carnitine uptake in ATI-like and A549 cells at […] (uptake reduced to […] in A549)
Type: cell-based
Settings: read-out: % of control uptake at 500 μM

C[N+](C)(C)C[C@@H](O)CC(=O)[O-] [D-carnitine]
remaining activity at 500 µM: 25.8 ± 1.3%
